Measured values reported in patent publication US20140364454A1, “METAL-CHELATING COMPOUNDS HAVING AT LEAST ONE POLYAMINO CHAIN” (UNIVERSITE DE RENNES I, priority 2011, published 2014).
Read-outs that look alike come from different tables or passages of the source.

Tests used:
[1] = pH 7.4; stated reference values; cited from earlier work
[2] = Potentiometry: stability constants and pFe3+ of the iron complex; assay type: physicochemical; conditions: pH 7.4
Procedure: The complexation affinity of Quilamine with the metal ion in the organism reflects the chelating capacity or chelating power of Quilamine. This affinity can be assessed by measuring the value of pW corresponding to −log of the concentration in free metal ion W, i.e. non-complexated by the Quilamine for a ratio of respective concentrations of Quilamine (10 micromoles per liter) and metal ion (1 micromole per liter) equal to 10, at 25° C. and pH 7.4. The higher the value of pW, the greater the affinity of Quilamine with metal ion. The affinity of Quilamine with iron in its ferric form (Fe(III)) and its ferrous form (Fe(II)) is measured respectively by pFe^3+ and pFe^2+ at physiological pH (pH=7.4), at 25° C.
Potentiometry measurements were made in thermostated titration cells at 25±0.1° C., using a Metrohm 702 SM Titrino titrator connected to a Metrohm 6.0233.100. The ligand solution is prepared in a concentration of ˜1.5×10^−3 moles per liter, the solution of Fe^3+ is made from FeCl3 and titrated by complexation with a standard solution of EDTA (ethylenediaminetetracetic acid). The sample for the measurement contained approximately 0.03 millimoles per liter of ligand in a volume of 30 ml where the ionic strength is maintained at 0.1 mole per liter in using KNO3 as a support electrolyte. During the titrations, Fe^3+ is added to 0.45 or 0.9 equivalents of ligand. Each titration consists of 150-200 equilibrium points with pH varying from 2.0 to 11.5, and is repeated at least twice. The thermodynamic constants are computed with the software […] and the speciation diagram of the species is done by the Hyss program.

[3] = system: wild cell line (CHO) of hamster ovarian cells; test: Anti-proliferative effect on CHO cells, counting of cell nuclei (Hoechst 33342); assay type: cell-based; conditions: CHO, 72 h, read-out: IC50 CHO
Procedure: (§1) The in vitro efficacy of different Quilamines was tested on a wild cell line (CHO) of hamster ovarian cells having PTS and a mutant cell line CHO-MG without PTS. The two cell types CHO and CHO-MG were treated, 24 hours after being seeded in 96-well microplates, by concentrations of different Quilamines ranging from 0.1 to 400 micromoles per liter. The cytostatic (anti-proliferative) effects and cytotoxic effects of Quilamine after 72 hours' treatment of the cells were assessed respectively by counting cell nuclei after DNA marking by the Hoechst 33342 fluorescent intercalant dye and by analysis of membrane damage detected by the dosing of the lactate dehydrogenase activity (LHD) in the supernatants.
The IC50 inhibitor concentration corresponding to the concentration in Quilamines enables the inhibition at 50% of the cell proliferation was deduced from the dose-effect curves of numeration of the nuclei of the living cells on the CHO and CHO-MG cell lines. […] The lower the value of IC50, the greater the efficiency of the anti-proliferative effect of the tested chelators.
(§2) A comparison was made of the cytostatic or anti-proliferative action and the cytotoxic action for 72 h of treatment by Quilamine HQ1-44 and 8-hydroxyquinoline and ICL670, on the CHO cell lines in the presence and without the presence of exogenous iron, in the form of Fe(III) citrate in a concentration of 20 micromoles per liter. The results obtained are shown in FIG. 4, FIG. 4A relating to the results on cell viability and FIG. 4B relating to the results on cell toxicity.

[4] = system: mutant cell line CHO-MG without PTS; test: Anti-proliferative effect on CHO-MG cells without PTS, counting of cell nuclei; assay type: cell-based, hamster
Description: The IC50 inhibitor concentration corresponding to the concentration in Quilamines enables the inhibition at 50% of the cell proliferation was deduced from the dose-effect curves of numeration of the nuclei of the living cells on the CHO and CHO-MG cell lines. These dose-effect curves are sometimes bi-phase curves as in the case of Quilamine HQ1-44 which has an anti-proliferative constituent (without concomitant release of LDH in supernatant) in the range of concentrations of 0.4 to 3 micromoles per liter and a second cytotoxic constituent accompanied by membrane toxicity expressed by the release of LDH for concentrations of over […]. The lower the value of IC50, the greater the efficiency of the anti-proliferative effect of the tested chelators.
Furthermore, the ratio of the IC50 inhibitor concentrations found for the CHO-MG and the CHO cell lines (Ratio IC50 (CHO-MG/CHO)) was computed for several Quilamines according to the invention. This ratio makes it possible to estimate the selectivity of recognition of the different chelators by the PTS: the higher the ratio, the more clearly is the chelator recognized by the PTS. When this ratio is close to 1, the tested chelator is not recognized or is little recognized by the PTS.

CHO cells = test: Cytotoxic effect on CHO cells, LDH release in supernatants; conditions: CHO
Procedure: as §1, §2

Caco-2 cells [5] = test: Cell viability of proliferating Caco-2 cells (number of nuclei); assay type: cell-based, human
Procedure: (§3) The action of Quilamines on the cell viability was analyzed on enterocyte cells of the Caco-2 tumor cell line derived from human colon carcinoma and compared with the action of ICL670 in the presence or absence of exogenous iron, after activation (DFMO) or competitive inhibition by spermidine, of the PTS. The operating conditions used are identical to those used for CHO/CHO-MG and HepG2 cells.
The results for the measurement of the anti-proliferative effect of Quilamines, and of ICL670 on the proliferating cells (cytostatic constituent) when there is no exogenous iron have been listed in the table 4 below.

Caco-2 cells [6] = test: LDH release of Caco-2 cells; assay type: cell-based, human
Procedure: as §3
As in the case of the other cell lines in proliferative phase presented here above, the dose-effect curves of the action of the Quilamines on the number of viable cells (number of nuclei) are biphase curves with a cytostatic constituent for concentration values of below 30 micromoles per liter and a cytotoxic constituent with release of LDH for concentration values above 30 micromoles per liter. Only this second cytotoxic constituent is observed when the cells of the Caco-2 cell line are treated after confluence (stopping of the proliferation).

SMILES	pFe3+ [1]	pFe3+ [2]	IC50 [3] [µM]	IC50 ([4]; CHO-MG, 72 h treatment) [µM]	Ratio IC50 (CHO-MG/CHO) ([4]; selectivity of recognition by the PTS)	influence of exogenous iron on the cytotoxic effect (CHO cells; Fe(III) citrate 20 micromoles per liter)	chelator concentration giving cytotoxic effect with release of LDH (CHO cells; absence of exogenous iron)	Constituent 2 (10-100 μM) % cell (Caco-2 cells [5]; Caco-2 J4, no exogenous iron) [%]	IC50 (Caco-2 cells [5]; Homo sapiens, Caco-2, read-out: Constituent 2 (10-100 μM) IC50) [µM]	% LDH/control 10 μM (Caco-2 cells [6]; Caco-2 J4, 10 μM) [%]	% LDH/control 100 μM (Caco-2 cells [6]; Caco-2 J4, 100 μM) [%]
O=C(O)CN(CC(=O)O)Cc1cc2c(cc1O)Oc1cc(O)c(CN(CC(=O)O)CC(=O)O)cc1C21OC(=O)c2ccccc21 [Calcein, reference compound]	20.3	–	–	–	–	–	–	–	–	–	–
O=C(O)CC(O)(CC(=O)O)C(=O)O [citrate]	19.3	–	–	–	–	–	–	–	–	–	–
Oc1cccc2cccnc12 [8-hydroxyquinoline, reference compound]	–	20.6	5	10.5	2	no modification	greater than or equal to 5 micromoles per liter	100	5	281	353
